Results: PubChem BioAssay AID330 (DTP/NCI, 2004)
Where “and” joins values, the source holds several entries; their conditions need not be identical. Equal values may be shown once. Inconclusive results and toxic doses are left out. Rule for the calls: active = survival T/C of 150% or more; inactive = T/C below 125% in these data.

System: P388 leukemia ip, CD2F1 mice, survival T/C
Assay: NCI In Vivo Anticancer Drug Screen. Data for tumor model P388 Leukemia (intraperitoneal) in CD2F1 (CDF1) mice
Settings: endpoint: median survival time, higher = longer survival
How it was run: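 Mice carrying the transplanted tumor received test compound or vehicle. Survival was recorded in each group, and the value is the treated-group measurement divided by that of the vehicle-treated control group.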

[1] = dose: 100.0 mg/kg/injection, schedule: Q01DX001 (ip), vehicle: Klucel (hydroxypropylcellulose) (HPC)
[2] = dose: 50.0 mg/kg/injection, schedule: Q01DX009 (ip), vehicle: saline with Tween-80
[3] = dose: 50.0 mg/kg/injection, schedule: Q01DX005 (ip), vehicle: saline
[4] = dose: 100.0 mg/kg/injection, schedule: Q01DX005 (ip), vehicle: saline
[5] = dose: 200.0 mg/kg/injection, schedule: Q01DX005 (ip), vehicle: saline
[6] = dose: 50.0 mg/kg/injection, schedule: Q01DX005 (ip), vehicle: Klucel (hydroxypropylcellulose) (HPC)
[7] = dose: 100.0 mg/kg/injection, schedule: Q01DX005 (ip), vehicle: Klucel (hydroxypropylcellulose) (HPC)
[8] = dose: 200.0 mg/kg/injection, schedule: Q01DX005 (ip), vehicle: Klucel (hydroxypropylcellulose) (HPC)
[9] = dose: 100.0 mg/kg/injection, schedule: Q01DX009 (ip), vehicle: saline with Tween-80

Measured: T/C

O=C(NC(=O)c1c(F)cccc1F)Nc1cc(Cl)c(F)c(Cl)c1F
inactive: dose: 15.0 mg/kg/injection, schedule: Q01DX005 (ip), vehicle: Klucel (hydroxypropylcellulose) (HPC) 98 % of control | dose: 30.0 mg/kg/injection, schedule: Q01DX005 (ip), vehicle: Klucel (hydroxypropylcellulose) (HPC) 90 % of control and 93 % of control | dose: 60.0 mg/kg/injection, schedule: Q01DX005 (ip), vehicle: Klucel (hydroxypropylcellulose) (HPC) 87 % of control and 94 % of control | dose: 120.0 mg/kg/injection, schedule: Q01DX005 (ip), vehicle: Klucel (hydroxypropylcellulose) (HPC) 93 % of control | dose: 240.0 mg/kg/injection, schedule: Q01DX005 (ip), vehicle: Klucel (hydroxypropylcellulose) (HPC) 88 % of control

CC(C)(C)C=O
inactive: dose: 100.0 mg/kg/injection, schedule: Q04DX003 (ip), vehicle: saline 100 % of control | dose: 200.0 mg/kg/injection, schedule: Q04DX003 (ip), vehicle: saline 100 % of control | dose: 400.0 mg/kg/injection, schedule: Q04DX003 (ip), vehicle: saline 100 % of control

C=C(C)C12CC(COC(=O)c3ccccc3)C34OC5(OC1C3C1OC1(COC(=O)CCCCCCCCCCCCCCC)C(O)C1(O)C(OC(=O)c3ccccc3)C(C)C(C(C)CCCCCCC5O)C14)O2 (centres undefined)
inactive: dose: 12.5 micrograms/kg/injection, schedule: Q01DX009 (ip), vehicle: saline 103 % of control | dose: 25.0 micrograms/kg/injection, schedule: Q01DX009 (ip), vehicle: saline 103 % of control | dose: 50.0 micrograms/kg/injection, schedule: Q01DX009 (ip), vehicle: saline 99 % of control

CC(=O)CCN1C(C#N)CCCC1C#N (centres undefined)
inactive: dose: 6.25 mg/kg/injection, schedule: Q01DX005 (ip), vehicle: saline with Tween-80 102 % of control | dose: 12.5 mg/kg/injection, schedule: Q01DX005 (ip), vehicle: saline with Tween-80 91 % of control | dose: 25.0 mg/kg/injection, schedule: Q01DX005 (ip), vehicle: saline with Tween-80 100 % of control

CCCCCCCCCC(=O)Oc1c2ccoc2cc2oc(=O)ccc12
inactive: [1] 98 % of control | dose: 200.0 mg/kg/injection, schedule: Q01DX001 (ip), vehicle: Klucel (hydroxypropylcellulose) (HPC) 91 % of control | dose: 400.0 mg/kg/injection, schedule: Q01DX001 (ip), vehicle: Klucel (hydroxypropylcellulose) (HPC) 103 % of control

CCc1nc(N)nc(N)c1-c1ccc(Cl)c(NC(C)=O)c1
inactive: dose: 3.13 mg/kg/injection, schedule: Q01DX009 (ip), vehicle: distilled water + Tween-80 94 % of control | dose: 6.25 mg/kg/injection, schedule: Q01DX009 (ip), vehicle: distilled water + Tween-80 94 % of control | dose: 12.5 mg/kg/injection, schedule: Q01DX009 (ip), vehicle: distilled water + Tween-80 94 % of control | dose: 25.0 mg/kg/injection, schedule: Q01DX009 (ip), vehicle: distilled water + Tween-80 88 % of control | dose: 50.0 mg/kg/injection, schedule: Q01DX009 (ip), vehicle: distilled water + Tween-80 91 % of control

NC1=NS(=O)(=O)c2ccccc2N1c1ccccc1
inactive: dose: 100.0 mg/kg/injection, schedule: Q04DX002 (ip), vehicle: saline with Tween-80 97 % of control | dose: 200.0 mg/kg/injection, schedule: Q04DX002 (ip), vehicle: saline with Tween-80 103 % of control | dose: 400.0 mg/kg/injection, schedule: Q04DX002 (ip), vehicle: saline with Tween-80 92 % of control

O=Nc1ccc(Cn2cc(Br)c(=O)[nH]c2=O)o1
inactive: dose: 25.0 mg/kg/injection, schedule: Q01DX001 (ip), vehicle: Klucel (hydroxypropylcellulose) (HPC) 113 % of control | dose: 50.0 mg/kg/injection, schedule: Q01DX001 (ip), vehicle: Klucel (hydroxypropylcellulose) (HPC) 100 % of control | [1] 108 % of control

Cc1ccc2sc(=S)sc2c1
inactive: dose: 50.0 mg/kg/injection, schedule: Q01DX009 (ip), vehicle: Klucel (hydroxypropylcellulose) (HPC) 89 % of control | dose: 100.0 mg/kg/injection, schedule: Q01DX009 (ip), vehicle: Klucel (hydroxypropylcellulose) (HPC) 99 % of control | dose: 200.0 mg/kg/injection, schedule: Q01DX009 (ip), vehicle: Klucel (hydroxypropylcellulose) (HPC) 96 % of control

O=C(CCN1CCCCC1)c1ccccc1
inactive: dose: 5.0 mg/kg/injection, schedule: Q01DX009 (ip), vehicle: saline 100 % of control | dose: 10.0 mg/kg/injection, schedule: Q01DX009 (ip), vehicle: saline 113 % of control | dose: 20.0 mg/kg/injection, schedule: Q01DX009 (ip), vehicle: saline 109 % of control | [2] 97 % of control

C[CH2][Sn]([F])([CH2]C)[CH2]C
inactive: dose: 0.37 mg/kg/injection, schedule: Q01DX009 (ip), vehicle: saline with Tween-80 90 % of control | dose: 0.38 mg/kg/injection, schedule: Q01DX009 (ip), vehicle: Klucel (hydroxypropylcellulose) (HPC) 101 % of control and 96 % of control | dose: 0.75 mg/kg/injection, schedule: Q01DX009 (ip), vehicle: Klucel (hydroxypropylcellulose) (HPC) 104 % of control and 108 % of control and 96 % of control | dose: 0.75 mg/kg/injection, schedule: Q01DX009 (ip), vehicle: saline with Tween-80 105 % of control | dose: 1.5 mg/kg/injection, schedule: Q01DX009 (ip), vehicle: Klucel (hydroxypropylcellulose) (HPC) 102 % of control and 103 % of control and 114 % of control | dose: 1.5 mg/kg/injection, schedule: Q01DX009 (ip), vehicle: saline with Tween-80 100 % of control | dose: 3.0 mg/kg/injection, schedule: Q01DX009 (ip), vehicle: Klucel (hydroxypropylcellulose) (HPC) 109 % of control and 116 % of control

COC(=O)C1C(COS(C)(=O)=O)ON2CCC(OC)(OC)C12 (centres undefined)
inactive: [3] 95 % of control | [4] 98 % of control | [5] 95 % of control

COC(=O)C1C(NCc2ccccc2)=CC(C)(C)C(C(=O)OC)C1c1ccccc1 (centres undefined)
inactive: [6] 103 % of control | [7] 100 % of control | [8] 97 % of control

O=C1CSC(=S)N1c1cc(Cl)c(Cl)cc1Cl
inactive: dose: 50.0 mg/kg/injection, schedule: Q01DX009 (ip), vehicle: suspension in saline 102 % of control | dose: 100.0 mg/kg/injection, schedule: Q01DX009 (ip), vehicle: suspension in saline 100 % of control | dose: 200.0 mg/kg/injection, schedule: Q01DX009 (ip), vehicle: suspension in saline 93 % of control

CSc1ccnc2cc(Cl)ccc12
inactive: [6] 96 % of control | [7] 106 % of control | [8] 110 % of control

O=C(Nc1cccc(Cl)c1)ON1C(=O)C2C(C1=O)C1(Cl)C(Cl)C(Cl)C2(Cl)C1(Cl)Cl (centres undefined)
inactive: [2] 103 % of control and 110 % of control | [9] 110 % of control and 112 % of control and 120 % of control | dose: 200.0 mg/kg/injection, schedule: Q01DX009 (ip), vehicle: saline with Tween-80 106 % of control and 124 % of control | dose: 400.0 mg/kg/injection, schedule: Q01DX009 (ip), vehicle: saline with Tween-80 108 % of control and 110 % of control

CN1CCN(CCCN2CC(=O)N3Cc4ccccc4CN3C(=O)C2)CC1
inactive: [3] 102 % of control | [4] 102 % of control | [5] 103 % of control

C=C(CCCC)[Se]c1ccccc1
inactive: dose: 25.0 mg/kg/injection, schedule: Q01DX009 (ip), vehicle: saline with Tween-80 103 % of control and 107 % of control | [2] 107 % of control and 95 % of control | [9] 101 % of control and 117 % of control
